Assay [1] deals with Healthy subjects, ages 13-18. Briefly: Wisconsin Card Sorting Task (WCST). It is filed as in vivo, human. The following applies: Visit 3. From the text:
Study participants were screened by telephone prior to study enrollment. Healthy subjects, ages 13-18, with no significant medical conditions and no history of co-morbid psychiatric disorder, current Axis I or II diagnosis, or previous participation in a pharmacotherapeutic trial, were selected. Use of any psychotropic medication or any previous head injury resulting in loss of consciousness for 5 or more minutes were used as exclusion criteria. While no participant met criteria for a neuropsychiatric disorder at enrollment, clinical assessments were still completed throughout the study to evaluate changes in mood state. In addition, self-reports of sleep habits, lifestyle, and exercise routines were also administered at baseline as well as at each study visit to assess changes in health habits during study participation. Following the completion of Visit 1 assessment, participants were given their 28-day supply of citicoline (250 mg or 500 mg) or placebo, which was randomly assigned. They were instructed to take one capsule a day every day for the next 28 days. Visit 2 occurred fourteen days after Visit 1. At Visit 2, the remaining study pills were counted and participant dosage calendars were checked to ensure compliance with the protocol. Additional neuropsychological measures and clinical assessments were administered during this visit. Participants returned for Visit 3 fourteen days later, on the 28th day of their study participation. The pill bottle and the dosage calendar were collected from each participant. Urine and blood were again obtained. Participants also participated in similar clinical and neuropsychological testing and clinical measures that were given during visit 1. The WCST assess a person’s ability to form abstract concepts, utilize feedback, and to shift and maintain set. […] The WCST involves 4 stimulus cards that vary in color, geometric form, and number. Without knowing the criterion, participants are asked to match cards from a deck to the stimulus cards. After the participant places each card, they are told whether they are correct or incorrect and should change the element they are matching based on this feedback. […] The WCST was given on the third visit of the study.

In assay [2] the test system is Healthy subjects, ages 13-18. As to the kind of experiment: ADHD Rating Scale (ARS). Type of assay: in vivo, human. More on the design: scale not given here. The source says:
Study participants were screened by telephone prior to study enrollment. Healthy subjects, ages 13-18, with no significant medical conditions and no history of co-morbid psychiatric disorder, current Axis I or II diagnosis, or previous participation in a pharmacotherapeutic trial, were selected. Use of any psychotropic medication or any previous head injury resulting in loss of consciousness for 5 or more minutes were used as exclusion criteria. While no participant met criteria for a neuropsychiatric disorder at enrollment, clinical assessments were still completed throughout the study to evaluate changes in mood state. In addition, self-reports of sleep habits, lifestyle, and exercise routines were also administered at baseline as well as at each study visit to assess changes in health habits during study participation. Following the completion of Visit 1 assessment, participants were given their 28-day supply of citicoline (250 mg or 500 mg) or placebo, which was randomly assigned. They were instructed to take one capsule a day every day for the next 28 days. Visit 2 occurred fourteen days after Visit 1. At Visit 2, the remaining study pills were counted and participant dosage calendars were checked to ensure compliance with the protocol. Additional neuropsychological measures and clinical assessments were administered during this visit. Participants returned for Visit 3 fourteen days later, on the 28th day of their study participation. The pill bottle and the dosage calendar were collected from each participant. Urine and blood were again obtained. Participants also participated in similar clinical and neuropsychological testing and clinical measures that were given during visit 1. The ARS is a questionnaire assessing the frequency of DSM-IV-TR symptoms of ADHD in children including inattention, impulsivity, and hyperactivity. The scale was administered at each of the three visits to assess presence or absence of ADHD symptoms.

The record followed here is US20230181614A1, “ADMINISTRATION OF CITICOLINE TO IMPROVE COGNITIVE PERFORMANCE, ATTENTIONAL PERFORMANCE, AND MOTOR FUNCTION” (KYOWA HAKKO BIO CO., LTD., priority 2014, published 2023).

As to `C[N+](C)(C)CCOP(=O)(O)OP(=O)([O-])OC[C@H]1O[C@@H](n2ccc(N)nc2=O)[C@H](O)[C@@H]1O` [citicoline, Cytidine 5′-diphosphocholine], in assay [1] (250 mg/day group), the “WCST V3 Number of Categories Achieved (Mean)” value is reported as 5.69, the “WCST V3 Number of Trials to Complete Category (Mean)” value was determined as 71.15, the “WCST V3 Number of Trials to Get into Category (Mean)” value is reported as 15.19 and the “WCST V3 Total Cards Used (Mean)” value came out at 90.88. Also, in assay [1] (250 mg/day group), the “WCST V3 Total Errors (Mean)” value stood at 19.73 and the “WCST V3 Total Perseverative Errors (Mean)” value came to 8.54. In addition, in assay [1] (500 mg/day group), the “WCST V3 Number of Categories Achieved (Mean)” value was 5.87, the “WCST V3 Number of Trials to Complete Category (Mean)” value is given as 70.57, the “WCST V3 Number of Trials to Get into Category (Mean)” value was 13.78 and the “WCST V3 Total Cards Used (Mean)” value is recorded as 89.57. Moreover, in assay [1] (500 mg/day group), the “WCST V3 Total Errors (Mean)” value was found to be 19.00 and the “WCST V3 Total Perseverative Errors (Mean)” value came to 9.13. Also, in assay [2] (250 mg/day, V1 (baseline)), the “ARS Impulsivity, Mean” value is reported as 1.44 and the “ARS Inattention, Mean” value came out at 1.30. Moreover, in assay [2] (250 mg/day, V3 (day 28)), the “ARS Impulsivity, Mean” value is given as 0.85 and the “ARS Inattention, Mean” value is reported as 1.56. Besides, in assay [2] (250 mg/day, V3-V1), the “ARS Impulsivity, Mean” value was -0.59 and the “ARS Inattention, Mean” value is on record as 0.26. In assay [2] (500 mg/day, V1 (baseline)), the “ARS Impulsivity, Mean” value is listed as 0.88 and the “ARS Inattention, Mean” value came out at 0.50. In assay [2] (500 mg/day, V3 (day 28)), the “ARS Impulsivity, Mean” value is recorded as 0.38 and the “ARS Inattention, Mean” value stood at 0.38. Further, in assay [2] (500 mg/day, V3-V1), the “ARS Inattention, Mean” value is on record as -0.13.
